Laboratory results reported in publication PMC12118597 (Science Advances, 2025).
Values joined by “and” are separate entries in the source; they are usually repeats but may differ in a detail not shown here. Equal values may be shown once. Read-outs that look alike come from different tables or passages of the source.

Biological target: SARS-CoV-2 NSP3 macrodomain (Mac1) (Severe acute respiratory syndrome coronavirus 2, UniProt P0DTD1)
Format: binding
[1] = DMSO background map; event 1; soak concentration 10 mM
[2] = DMSO background map; soak concentration 10 mM
[3] = PanDDA background density correction factor
[4] = TRUE = ligand-bound crystal structure obtained (PDB code given)
[5] = crystal soak concentration 20 mM, DMSO background map
[6] = crystal soak concentration 20 mM, DMSO background map, event 1
[7] = crystal soak concentration 20 mM, P43 crystals
[8] = crystal soak, P43 crystals; soak concentration 10 mM
[9] = crystal soak, P43 crystals; soak concentration 10 mM for the hits shown
[10] = ligand conformations modeled in the crystal structure
[11] = refined crystallographic occupancy
[12] = site of Mac1 occupied in the X-ray crystal structure (Adenosine or Distal)
[13] = PanDDA background density correction, 1-BDC
[14] = soak concentration 10 mM, DMSO background map
[15] = soak concentration 10 mM, P43 crystals
[16] = soak concentration 3 mM, DMSO background map
[17] = soak concentration 3 mM, P43 crystals
[18] = crystal soak 10 mM, P43 crystal form
[19] = crystal soak 10 mM; DMSO background map

SMILES	Occupancy difference (refined_occupancy - 2*(1-BDC))	PanDDA run, DMSO background map: 1-BDC [1]	PanDDA run, DMSO background map: Hit [2]	1-BDC [3]	X-ray crystal structure [4]	Hit (PanDDA run, DMSO background map) [5]	1-BDC (PanDDA run, DMSO background map) [6]	Hit (PanDDA run, overall) [7]	Modeling comment (PanDDA run, overall) [7]	PanDDA run, overall: Hit [9]	Total number of conformations [10]	2*(1-BDC) (%) (occupancy estimate from PanDDA)	Refined ligand occupancy (%) [11] [%]	Binding site [12]	PanDDA run, DMSO background map: 1-BDC [14]	PanDDA run, DMSO background map: Hit [14]	PanDDA run, overall: Hit [15]	other results
O=C(O)C1CCCN1S(=O)(=O)c1cccc2nsnc12 (stereo not drawn) [AVI-2]	10	0.2	TRUE	0.2	TRUE	TRUE	0.22	TRUE	Duplicate, not modeled	TRUE	1	40	50	Adenosine				PanDDA run, DMSO background map: Modeled [2]: TRUE; PanDDA run, overall: Modeled [8]: TRUE
c1ccc(-n2nnnc2CSc2nnc(NC3CC3)s2)cc1 [AVI-286]	0	0.11	TRUE	0.11	TRUE					TRUE	1	22	22	Distal				PanDDA run, DMSO background map: Modeled [2]: TRUE; PanDDA run, overall: Modeled [8]: TRUE
O=C(O)C(c1ccccc1)n1sc2ccccc2c1=O (stereo not drawn) [AVI-288]		0.26	TRUE		TRUE	TRUE	0.37	TRUE		TRUE		74		Adenosine				1-BDC [13]: 0.37; Modeled (PanDDA run, DMSO background map) [5]: TRUE; Modeled (PanDDA run, overall) [7]: TRUE; PanDDA run, overall: Modeling comment [8]: Duplicate, not modeled; Refined ligand occupancy (%) (crystallographic refinement): 74%
CC(C)n1nnnc1SCc1c(C(=O)O)sc2cccc(F)c12 [AVI-291]		0.25	TRUE		TRUE	TRUE	0.34	TRUE	Second ligand conformation, not modeled, DMSO x2	TRUE		68		Adenosine				1-BDC [13]: 0.34; Modeled (PanDDA run, DMSO background map) [5]: TRUE; Modeled (PanDDA run, overall) [7]: TRUE; PanDDA run, overall: Modeling comment [8]: Duplicate, not modeled; Refined ligand occupancy (%) (crystallographic refinement): 68%
Nc1nnc(SCCn2c(=O)oc3ccccc32)s1 [AVI-296]	0	0.06	TRUE	0.06	TRUE					TRUE	1	12	12	Distal				PanDDA run, DMSO background map: Modeled [2]: TRUE; PanDDA run, overall: Modeled [8]: TRUE
CCn1c(C)nnc1Sc1cnc2ccccc2n1 [AVI-297]		0.05	TRUE							TRUE								PanDDA run, overall: Modeling comment [8]: Only density for quinoxaline, not modeled
CC1CC(C(=O)O)CCN1C(=O)c1ccc2c(c1)OCC(=O)N2 (stereo not drawn) [AVI-303]	0	0.13	TRUE	0.13	TRUE	TRUE	0.19	TRUE	Duplicate, not modeled	TRUE	1	26	26	Adenosine				PanDDA run, DMSO background map: Modeled [2]: TRUE; PanDDA run, overall: Modeled [8]: TRUE
COc1ccc(NC(=O)NC2CCCC2)cc1-n1nnnc1C [AVI-311]						TRUE	0.12	TRUE	Weak density, not modeled						0.09	TRUE	TRUE	PanDDA run, overall: Modeling comment [15]: Weak density, not modeled
O=C(Nc1ccsc1C(=O)O)c1ccc2c(c1)OCO2 [AVI-316]	0			0.07	TRUE	TRUE	0.12	TRUE	Duplicate, not modeled		1	14	14	Adenosine	0.07	TRUE	TRUE	PanDDA run, DMSO background map: Modeled [14]: TRUE; PanDDA run, overall: Modeled [15]: TRUE
Cc1sc2ncnc(Sc3ccccc3C(=O)O)c2c1C [AVI-317]	30			0.15	TRUE						2	30	60	Adenosine	0.17 and 0.15	TRUE	TRUE	PanDDA run, DMSO background map: Modeled [14]: TRUE; PanDDA run, overall: Modeled [15]: TRUE; PanDDA run, overall: Modeling comment [15]: Duplicate, not modeled
Cc1c(C)n(Cc2ccccc2)c2ncnc(N)c12 [AVI-321]	0			0.08	TRUE						1	16	16	Adenosine				PanDDA run, DMSO background map: 1-BDC [16]: 0.08; PanDDA run, DMSO background map: Hit [16]: TRUE; PanDDA run, DMSO background map: Modeled [16]: TRUE; PanDDA run, overall: Hit [17]: TRUE; PanDDA run, overall: Modeled [17]: TRUE
Cc1cc2c(=O)n(CCN3C(=O)c4ccccc4S3(=O)=O)nnc2s1 [AVI-341]	14			0.18	TRUE	TRUE	0.19	TRUE	Duplicate, not modeled		1	36	50	Adenosine	0.18	TRUE	TRUE	PanDDA run, DMSO background map: Modeled [14]: TRUE; PanDDA run, overall: Modeled [15]: TRUE
CNc1ccc(NS(=O)(=O)c2cc3cccc(C)c3s2)cn1 [AVI-345]					TRUE	TRUE	0.26	TRUE				52		Adenosine	0.17	TRUE	TRUE	1-BDC [13]: 0.26; Modeled (PanDDA run, DMSO background map) [5]: TRUE; Modeled (PanDDA run, overall) [7]: TRUE; Refined ligand occupancy (%) (crystallographic refinement): 52%; PanDDA run, overall: Modeling comment [15]: Duplicate, not modeled
CC1CCN(C(=O)c2ccc3c(c2)nc(CO)n3C)CC1C(=O)O (stereo not drawn) [AVI-348]	0			0.25	TRUE	TRUE	0.34	TRUE	Duplicate, not modeled		1	50	50	Adenosine	0.25	TRUE	TRUE	PanDDA run, DMSO background map: Modeled [14]: TRUE; PanDDA run, overall: Modeled [15]: TRUE
OC[C@@H]1C[C@H](F)CN1c1ncnc2[nH]ccc12 [AVI-609]	0			0.17							1	34	34					PanDDA run, overall: Hit [18]: TRUE; PanDDA run, DMSO background map: 1-BDC [19]: 0.17; PanDDA run, DMSO background map: Hit [19]: TRUE; X-ray crystal structure (ligand-bound crystal structure obtained (TRUE)): TRUE; Binding site (site occupied in X-ray crystal structure): Adenosine
NC(=O)C1(O)CCN(c2ncnc3[nH]ccc23)C1 (stereo not drawn) [AVI-611]	0			0.22							2	44	44					X-ray crystal structure (TRUE = crystal structure with ligand obtained): TRUE; PanDDA run, overall: Hit [18]: TRUE; PanDDA run, DMSO background map: 1-BDC [19]: 0.22; PanDDA run, DMSO background map: Hit [19]: TRUE; Binding site (site of Mac1 occupied in the X-ray crystal structure): Adenosine
